Measured values from patent publication US20060183677A1, “Novel exendin agonist formulations and methods of administration thereof” (priority 2002, published 2006).

Experiments:
diabetic db/db mice = experiment: Glucose lowering in diabetic db/db mice (dose response); type: in vivo
Procedure: C57BLKS/J-m-db/db mice, at least 3 months of age were utilized for the study. The mice were obtained from The Jackson Laboratory and allowed to acclimate for at least one week before use. Mice were housed in groups of ten at 22° C.±1° C. with a 12:12 light:dark cycle, with lights on at 6 a.m. All animals were deprived of food for 2 hours before taking baseline blood samples. Approximately 70 μl of blood was drawn from each mouse via eye puncture, after a light anesthesia with metophane. […] Blood samples were drawn again, using the same procedure, after exactly one hour from the injections, and plasma glucose concentrations were measured. For each animal, the % change in plasma value, from baseline value, was calculated and a dose dependent relationship was evaluated using Graphpad Prizm™ software.

humans = settings: acute treatment; cited from earlier work
Sprague-Dawley rats = experiment: Insulinotropic action during intravenous glucose challenge in rats (Example 5); type: in vivo; settings: 30 pmol/kg/min i.v.

## GLP-1[7-36]NH2
Diabetic db/db mice
  Glucose-lowering ED50: 20.6 µg
humans
  acute effect on insulin sensitivity: appears not to immediately alter insulin sensitivity
Sprague-Dawley rats
  60-min glucose AUC: 1096 ± 68 mM·min
Sprague-Dawley rats; D-glucose […] i.v.
  plasma glucose after glucose injection: 23.7 mM
Sprague-Dawley rats; n.s. versus saline
  increase of 60-min insulin AUC versus saline-treated rats: 20%
